Test results from patent EP2173323B1, “STIMULATING GEL” (LRC Products Limited, priority 2007, dated 2009).

How the values were obtained:
[1] = Cooling strength of coolants relative to menthol; details: menthol = 100
[2] = Penetration of coolants across body surfaces
Excerpt: By "penetration enhancer" we mean any compound which aids penetration or absorption of coolants (or other active ingredients) into and through body surfaces, for example, compounds which aid penetration of coolants into and through the skin and mucosal membranes. Preferably, penetration enhancers as used herein aid penetration and/or absorption of coolants which are cyclic carboxamides, such as N-cthyl-p-menthane-3-carboxamide, and/or aid penetration and/or absorption of (-)-isopulegol across body surfaces. Such penetration enhancement may potentiate the action of coolants, or other active ingredients. Any suitable penetration enhancer may be used. Preferred penetration enhancers include ethoxy diglycol, limonene, isopropyl palmitate, sodium lauryl sulphate and L-arginine. Optionally, the penetration enhancer may also act as a vasodilator.
Optionally, the compositions further comprise a penetration enhancer. The penetration enhancer can be any compound which aids penetration or absorption of the cyclic carboxamide and/or of isopulegol into and through body surfaces, for example, compounds which aid penetration into and through the skin and mucosal membranes. Any suitable penetration enhancer may be used. Preferred penetration enhancers include ethoxy diglycol, limonene; isopropyl palmitate; and sodium lauryl sulphate. […]

[3] = Volatility compared with menthol; format: physicochemical
[4] = Crystallisation / clouding at low temperatures; format: physicochemical

SMILES	Cooling strength relative to menthol [1]	further results
C=C(C)C1CCC(C)CC1O (stereo not drawn) [Isopulegol, 2-isopropenyl-5-methyl-cyclohexanol]	25	
N=C(N)NCCC[C@H](N)C(=O)O [L-arginine]		penetration enhancement of coolants (cyclic carboxamides and isopulegol) [2]: aids penetration of coolants
CC1CCC(C(C)C)C(O)C1 (stereo not drawn) [Menthol]	100	
CC1CCC(C(C)C)C2(C1)OCC(CO)O2 (stereo not drawn) [Menthone glycerine acetal]	41	
CC1CCC(C(C)C)C(OC(=O)C(C)O)C1 (stereo not drawn) [Menthyl lactate]	43	
CCNC(=O)C1CC(C)CCC1C(C)C (stereo not drawn) [WS-3, N-ethyl-p-menthane-3-carboxamide]	150	volatility [3]: lower volatility than menthol; crystallisation at low temperatures [4]: does not crystallise at low temperatures
CNC(=O)C(C)(C(C)C)C(C)C [WS-23]	75	
